One series addresses T1, ClpC1NTD (Mycolicibacterium smegmatis, UniProt A0R574).
T1 construct: M. smegmatis clpC1 NTD (1-148) was cloned in pET21a; hexahistidine (C); made in house; host or cells: E. coli BL21 (DE3) or Rosetta
Nature of the series: Binding affinity by isothermal titration calorimetry (ITC). Particulars: ITC at 25 °C, 50 mM Tris pH 7.5, 100 mM NaCl, 2% DMSO, single binding site model. On the procedure: Binding affinities were determined using isothermal titration calorimetry (ITC).
ITC experiments were carried out using MicroCal PEAQ-ITC (Malvern) at 25 °C, whilst stirring at 750 rpm in a buffer containing 50 mM Tris pH 7.5, 100 mM NaCl. Each titration consisted of 19 injections with intervals of 120 s (the first injection of 0.4 µL followed by 18 injections of 2 µL). DMSO concentration was matched between cell and syringe to 2%. The data were fitted to a single binding site model with a fitted offset subtraction in the MicroCal PEAQ-ITC Analysis Software. Each titration was repeated at least two times. Titrations were performed with ligand in the syringe and protein in the cell. A control titration of ligand into buffer was performed in order to account for the heat of dilution. Titrations involving compounds with poorer solubility of the compound in buffer were performed with ligand in the cell and protein in the syringe. The following table 2 provides the results of the determination. Table 2: results for dissociation constant (KD) and Minimal Inhibitory Concentration (MIC)
In general terms: In ITC the heat of successive injections is recorded.

Another series has as its system mycobacterial cell. Nature of the series: Minimal Inhibitory Concentration (MIC). It is filed as cell-based.
For series [1] the following is noted: amide bond, 21-membered ring.
Setting [2] is: the molecule shown is the open-chain precursor.
The mark [3] stands for this setting: the molecule shown is the open-chain precursor, DIC/HOAt/Et3N, DCM, 0.75 mM, 25.0 °C.

Values after ≈ are worked out from the molar mass of the structure shown. Values joined by “and” are separate entries in the source; they are usually repeats but may differ in a detail not shown here. Equal entries are not always repeated. Where two headings read alike, the source gives them in different places. Starred links: 1 amine or outer side, 2 acyl side, 3 side chain; linkers in the order of their positions; H or OH if unused. Non-standard residues stand in square brackets, D forms with d. Residues, ends and D or L forms follow the SMILES beside them. *: point of attachment. Trp(1-(1,1-Me2-allyl)) = C=CC(C)(C)n1cc(C[C@H](N)C(=O)O)c2ccccc21; Phe(βR-OMe) = CO[C@H](c1ccccc1)[C@H](N)C(=O)O; X4 = C/C=C/[C@@H](C)[C@H](N[*:1])C(=O)[*:2]; X2 = CN([C@@H](CCCO)C(=O)[*:2])[*:1]; NMeE = CN[C@@H](CCC(=O)O)C(=O)O; NMeL = CN[C@@H](CC(C)C)C(=O)O; NMeK = CN[C@@H](CCCCN)C(=O)O; tBu = CC(C)(C)*; NHPr = CCCN*

What is called Kd is a measure of binding affinity in units of concentration. High values mean weaker binding, low ones tighter binding. A word on the MIC: it is the smallest concentration in the dilution series that meets the test's criterion for growth inhibition. Low values mean inhibition by little substance, high ones a need for much substance.

T1 sequence (A0R574 1-148): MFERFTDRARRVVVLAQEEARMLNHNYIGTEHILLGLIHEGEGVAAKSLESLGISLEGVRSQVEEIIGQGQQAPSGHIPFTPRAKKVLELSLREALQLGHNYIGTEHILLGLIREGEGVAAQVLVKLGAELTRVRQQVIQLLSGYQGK

Take `CC[C@H](C)[C@@H]1NC(=O)[C@H](CC(C)C)N(C)C(=O)[C@H](C(C)C)NC(=O)[C@H](Cc2ccccc2)NC(=O)[C@H](C)NC(=O)[C@H](CCC(=O)O)N(C)C(=O)[C@H](Cc2c[nH]c3ccccc23)NC1=O` [CycloA_D2] (cyclo(AFV[NMeL]IW[NMeE])): the Kd on ClpC1NTD was found to be 225 µM.
`CC[C@H](C)[C@@H]1NC(=O)[C@H](CC(C)C)N(C)C(=O)[C@H](C(C)C)NC(=O)[C@H](Cc2ccccc2)NC(=O)[C@H](C)NC(=O)[C@H](CCCO)N(C)C(=O)[C@H](Cc2ccc(OC(C)(C)C)cc2)NC1=O` [CycloA_D5a] (cyclo(V[NMeL]IY(tBu)[X2]AF)): the affinity on ClpC1NTD, expressed as Kd, was 128 µM. Besides, in the series on mycobacterial cell, the MIC is reported as greater than 30 µM.
With `CC[C@H](C)[C@@H]1NC(=O)[C@H](CC(C)C)N(C)C(=O)[C@H](C(C)C)NC(=O)[C@H](Cc2ccccc2)NC(=O)[C@H](C)NC(=O)[C@H](CCCO)N(C)C(=O)[C@H](Cc2ccc(O)cc2)NC1=O` [CycloA_D5b] (cyclo(V[NMeL]IY[X2]AF)), the equilibrium dissociation constant (Kd) at ClpC1NTD is 326 µM.
As for `CC[C@H](C)[C@@H]1NC(=O)[C@H](CC(C)C)N(C)C(=O)[C@H](C(C)C)NC(=O)[C@H](Cc2ccccc2)NC(=O)[C@H](C)NC(=O)[C@H](CCCCN)N(C)C(=O)[C@H](Cc2c[nH]c3ccccc23)NC1=O` [CycloA_D6] (cyclo(AFV[NMeL]IW[NMeK])), the Kd at ClpC1NTD worked out at 14.9 µM. Also, in the series with mycobacterial cell, the minimum inhibitory concentration (MIC) was determined as 24 µM (≈ 21.3 µg/mL).
Taken in the same sequence, the figures for `CCCNC(=O)CC[C@H]1C(=O)N[C@@H](C)C(=O)N[C@@H](Cc2ccccc2)C(=O)N[C@@H](C(C)C)C(=O)N(C)[C@@H](CC(C)C)C(=O)N[C@@H]([C@@H](C)CC)C(=O)N[C@@H](Cc2c[nH]c3ccccc23)C(=O)N1C` [CycloA_D7] (cyclo(AFV[NMeL]IW[NMeE](NHPr))) were 26.8 µM and greater than 120 µM.
Consider `CC[C@H](C)[C@@H]1NC(=O)[C@H](CC(C)C)N(C)C(=O)[C@H](C(C)C)NC(=O)[C@H]([C@H](OC)c2ccccc2)NC(=O)[C@H](C)NC(=O)[C@H](CCCCN)N(C)C(=O)[C@H](Cc2c[nH]c3ccccc23)NC1=O` [CycloA_D9] (cyclo(W[NMeK]A[Phe(βR-OMe)]V[NMeL]I)), for which, on ClpC1NTD, binding was characterised by a dissociation constant (Kd) of 2.8 µM. The same molecule returned an MIC against mycobacterial cell of 12 µM (≈ 11 µg/mL).
With `C=CC(C)(C)n1cc(C[C@@H]2NC(=O)[C@H]([C@@H](C)CC)NC(=O)[C@H](CC(C)C)N(C)C(=O)[C@H](C(C)C)NC(=O)[C@H](Cc3ccccc3)NC(=O)[C@H](C)NC(=O)[C@H](CCCCN)N(C)C2=O)c2ccccc21` [CycloA_D10] (cyclo(AFV[NMeL]I[Trp(1-(1,1-Me2-allyl))][NMeK])), the MIC in the series on mycobacterial cell is on record as 40 µM (≈ 38.2 µg/mL).
On to `C=CC(C)(C)n1cc(C[C@@H]2NC(=O)[C@H]([C@@H](C)CC)NC(=O)[C@H](CC(C)C)N(C)C(=O)[C@H](C(C)C)NC(=O)[C@H]([C@H](OC)c3ccccc3)NC(=O)[C@H](C)NC(=O)[C@H](CCCCN)N(C)C2=O)c2ccccc21` [CycloA_D11] (cyclo(A[Phe(βR-OMe)]V[NMeL]I[Trp(1-(1,1-Me2-allyl))][NMeK])), for which the MIC against mycobacterial cell came to 20 µM (≈ 19.7 µg/mL).
In the case of `CC[C@H](C)[C@@H]1NC(=O)[C@H](CCC(=O)O)N(C)C(=O)[C@H](C(C)C)NC(=O)[C@H]([C@H](OC)c2ccccc2)NC(=O)[C@H](C)NC(=O)[C@H](CCCCN)N(C)C(=O)[C@H](Cc2c[nH]c3ccccc23)NC1=O` [CycloA_D13] (cyclo(A[Phe(βR-OMe)]V[NMeE]IW[NMeK])), in the series with mycobacterial cell, the minimal inhibitory concentration (MIC) is listed as greater than 200 µM.
On the same count and under the same terms, in the case of `C=CC(C)(C)n1cc(C[C@@H]2NC(=O)[C@H]([C@H](C)/C=C/C)NC(=O)[C@H](CC(C)C)N(C)C(=O)[C@H](C(C)C)NC(=O)[C@H]([C@H](OC)c3ccccc3)NC(=O)[C@H](C)NC(=O)[C@H](CCCCN)N(C)C2=O)c2ccccc21` [CycloA_D17] (cyclo(A[Phe(βR-OMe)]V[NMeL][X4][Trp(1-(1,1-Me2-allyl))][NMeK])) it was 20 µM (≈ 19.9 µg/mL).
For the molecule `CC[C@H](C)[C@@H]1NC(=O)[C@H](CC(C)C)N(C)C(=O)[C@H](C(C)C)NC(=O)[C@H](Cc2ccccc2)NC(=O)[C@H](C)NC(=O)[C@H](CCCO)N(C)C(=O)[C@H](Cc2c[nH]c3ccccc23)NC1=O` [CylcoA_D4] (cyclo(AFV[NMeL]IW[X2])), the equilibrium dissociation constant (Kd) at ClpC1NTD was found to be 107 µM. Besides, in the series on mycobacterial cell, the minimum inhibitory concentration (MIC) is listed as greater than 30 µM.
In series [1] (from H-Val-MeGlu(tBu)-Ile-Trp(Boc)-MeLys(Boc)-Ala-Phe(3R-MeO)-OH, T3P/DIEA, DCM, 0.75 mM, 25.0 °C), `CC[C@H](C)[C@@H]1NC(=O)[C@H](CCC(=O)OC(C)(C)C)N(C)C(=O)[C@H](C(C)C)NC(=O)[C@H]([C@H](OC)c2ccccc2)NC(=O)[C@H](C)NC(=O)[C@H](CCCCNC(=O)OC(C)(C)C)N(C)C(=O)[C@H](Cc2cn(C(=O)OC(C)(C)C)c3ccccc23)NC1=O` [H-Val-MeGlu(tBu)-Ile-Trp(Boc)-MeLys(Boc)-Ala-Phe(3R-MeO)-OH] registered a ring closure, crude yield of 52%.
In series [1] (from H-Val-MeLeu-Ile-Trp(Boc)-MeHnv(TBDMS)-Ala-Phe-OH, T3P/DIEA, DCM, 0.75 mM, 25.0 °C), `CC[C@H](C)[C@@H]1NC(=O)[C@H](CC(C)C)N(C)C(=O)[C@H](C(C)C)NC(=O)[C@H](Cc2ccccc2)NC(=O)[C@H](C)NC(=O)[C@H](CCCO[Si](C)(C)C(C)(C)C)N(C)C(=O)[C@H](Cc2cn(C(=O)OC(C)(C)C)c3ccccc23)NC1=O` [H-Val-MeLeu-Ile-Trp(Boc)-MeHnv(TBDMS)-Ala-Phe-OH] came in with a ring closure, crude yield of 94%.
In series [1] (from H-Val-MeLeu-Ile-Trp(Boc)-MeLys(Boc)-Ala-Phe(3R-MeO)-OH, T3P/DIEA, DCM, 0.75 mM, 25.0 °C), `CC[C@H](C)[C@@H]1NC(=O)[C@H](CC(C)C)N(C)C(=O)[C@H](C(C)C)NC(=O)[C@H]([C@H](OC)c2ccccc2)NC(=O)[C@H](C)NC(=O)[C@H](CCCCNC(=O)OC(C)(C)C)N(C)C(=O)[C@H](Cc2cn(C(=O)OC(C)(C)C)c3ccccc23)NC1=O` [H-Val-MeLeu-Ile-Trp(Boc)-MeLys(Boc)-Ala-Phe(3R-MeO)-OH] showed a ring closure, crude yield of 88%.
In series [1] (from H-Val-MeLeu-Ile-Trp(Boc)-MeLys(Boc)-Ala-Phe-OH, T3P/DIEA, DCM, 0.75 mM, 25.0 °C), `CC[C@H](C)[C@@H]1NC(=O)[C@H](CC(C)C)N(C)C(=O)[C@H](C(C)C)NC(=O)[C@H](Cc2ccccc2)NC(=O)[C@H](C)NC(=O)[C@H](CCCCNC(=O)OC(C)(C)C)N(C)C(=O)[C@H](Cc2cn(C(=O)OC(C)(C)C)c3ccccc23)NC1=O` [H-Val-MeLeu-Ile-Trp(Boc)-MeLys(Boc)-Ala-Phe-OH] displayed a ring closure, crude yield of 75%.
In the case of `CC[C@H](C)[C@@H]1NC(=O)[C@H](CC(C)C)N(C)C(=O)[C@H](C(C)C)NC(=O)[C@H](Cc2ccccc2)NC(=O)[C@H](C)NC(=O)[C@H](CCCNC(=O)OC(C)(C)C)N(C)C(=O)[C@H](Cc2cn(C(=O)OC(C)(C)C)c3ccccc23)NC1=O` [H-Val-MeLeu-Ile-Trp(Boc)-MeOrn(Boc)-Ala-Phe-OH], the ring closure, crude yield in series [1] (from H-Val-MeLeu-Ile-Trp(Boc)-MeOrn(Boc)-Ala-Phe-OH, T3P/DIEA, DCM, 0.75 mM, 25.0 °C) was found to be 98%.
In series [1] (from H-Val-MeLeu-Ile-Tyr(tBu)-MeGlu(Me)-Ala-Phe-OH, T3P/DIEA, DCM, 0.75 mM, 25.0 °C), `CC[C@H](C)[C@@H]1NC(=O)[C@H](CC(C)C)N(C)C(=O)[C@H](C(C)C)NC(=O)[C@H](Cc2ccccc2)NC(=O)[C@H](C)NC(=O)[C@H](CCC(=O)OC)N(C)C(=O)[C@H](Cc2ccc(OC(C)(C)C)cc2)NC1=O` [H-Val-MeLeu-Ile-Tyr(tBu)-MeGlu(Me)-Ala-Phe-OH] had a ring closure, crude yield of 72%.
Turning to “H-Glu(TOTA-PMX-methylester)-Phe(3R-MeO)-Val-MeLeu-Ile-Trp(Boc)-MeLys(Boc)-OH”, the ring closure, crude yield in series [1] (setting [2]) was 77% and 58%.
“H-Glu(TOTA-TMP)-Phe(3R-MeO)-Val-MeLeu-Ile-Trp(Boc)-MeLys(Boc)-OH?” came in with a ring closure, crude yield in series [1] (setting [2]) of 65%.
“H-Val-MeLeu-Ile-Trp(Boc)-MeLys(Boc)-Glu(TOTA-(+)JQ1)-Phe(3R-MeO)-OH” displayed a ring closure, crude yield in series [1] (setting [2]) of 64%.
For “H-Val-MeLeu-Ile-Trp(Boc)-MeLys(Boc)-Glu(TOTA-(-)JQ1)-Phe(3R-MeO)-OH”, the ring closure, crude yield in series [1] (setting [2]) is 70%.
With “H-Val-MeLeu-Ile-Trp(Boc)-MeLys(Boc)-Glu(TOTA-Biotin)-Phe(3R-MeO)-OH”, the ring closure, crude yield in series [1] (setting [3]) came out at 63%.
For the molecule “H-Val-MeLeu-Ile-Trp(Boc)-MeLys(Boc)-Glu(TOTA-SLF')-Phe(3R-MeO)-OH”, the ring closure, crude yield in series [1] (setting [2]) turned out to be 54%.
Regarding “H-Val-MeLeu-Ile-Trp(Boc)-MeLys(Boc)-Lys(Biotin)-Phe(3R-MeO)-OH”, in series [1] (setting [3]), the ring closure, crude yield came out at 72%.
Regarding “H-Val-MeLeu-Ile-Trp(prenyl)-MeLys(Boc)-Ala-Phe(3R-MeO)-OH”, in series [1] (setting [3]), the ring closure, crude yield turned out to be 65%.
“H-Val-MeLeu-Ile-Trp(prenyl)-MeLys(Boc)-Ala-Phe-OH”: the ring closure, crude yield in series [1] (setting [3]) is 78%.
The same measure, in the same setting: in the case of “H-Val-MeLeu-dehydroisonorleucine-Trp(prenyl)-MeLys(Boc)-Ala-Phe(3R-MeO)-OH” it was 81%.

The record behind these values is patent publication EP4089103A1, “CLPCP PROTEASE-BINDING CYCLIC HEPTAPEPTIDES” (priority 2021, dated 2022).
